We go through nine molecules from EP2246331A1, “NR2B-selective NMDA-receptor antagonists” (Westfälische Wilhelms-Universität Münster, priority 2009, dated 2010).

Usually Kd stands for a measure of binding affinity in units of concentration.

Where two headings read alike, the source gives them in different places.

One experiment addresses T1, σ1 receptor (Cavia porcellus, UniProt Q60492).
T1 construct: tissue Harlan Winkelmann; host or cells: guinea pig brain membranes
The experiment is described as follows: Receptor binding assay with [3H]-(+)-pentazocine on guinea pig brain membranes. The conditions noted are these: 2 nM [3H]-(+)-pentazocine, guinea pig brain membranes; for Ki: 180 min at 37 °C, mean ± SEM, read-out: affinity to the σ1 receptor. How it is done:
(§1) The pig brains were a donation of the local slaughterhouse (Coesfeld, Germany). Homogenizer: Elvehjem Potter (B. Braun Biotech International, Melsungen, Germany). Centrifuge: High-speed cooling centrifuge model Sorvall RC-5C plus (Thermo Fisher Scientific, Langenselbold, Germany). Filter: Printed Filtermat Typ A and B (Perkin Elmer LAS, Rodgau-Jügesheim, Germany), presoaked in 0.5% aqueous polyethylenimine for 2 h at room temperature before use. […] Before filling to the final volume of 1000 mL, the pH of the solution was adjusted to pH=7.5 by dropwise addition of 1M HCl. The filtration was carried out with a MicroBeta FilterMate-96 Harvester (Perkin Elmer). The scintillation analysis was performed using Meltilex (Typ A or B) solid scintillator (Perkin Elmer). The solid scintillator was melted on the filtermat at a temperature of 95 °C for 5 minutes. After solidifying of the scintillator at room temperature, the scintillation was measured using a MicroBeta Trilux scintillation analyzer (Perkin Elmer). The overall counting efficiency was 20 %. All experiments were carried out in triplicates using standard 96-well-multiplates (Diagonal, Muenster, Germany). […] The Ki-values are given as mean value ± SEM from three independent experiments.
Determination of the affinity to the σ1 receptor
Five guinea pig brains (Harlan Winkelmann, Borchen, Germany) were homogenized with the potter (500-800 rpm, 10 up-and-down strokes) in 6 volumes of cold 0.32 M sucrose. The suspension was centrifuged at 1200 x g for 10 min at 4 °C. […] This procedure was repeated twice. The final pellet was resuspended in 5 to 6 volumes of buffer, the protein concentration was determined according to the method of Bradford using bovine serum albumin as standard, and subsequently the preparation was frozen (-80 °C) in 1.5 mL portions containing about 1.5 mg protein/mL.
The test was performed with the radioligand [^3H]-(+)-pentazocine (42,5 Ci/mmol; Perkin Elmer). […] The incubation was terminated by rapid filtration through the presoaked filtermats using a cell harvester. After washing each well five times with 300 µl of water, the filtermats were dried at 95 °C. The bound radioactivity trapped on the filters was counted in the scintillation analyzer as described in the "General procedures" section. The non-specific binding was determined with 10 µM unlabeled (+)-pentazocine.

In experiment [1] the target is T2, polyamine binding site of the NR2B subunit of the NMDA receptor (Homo sapiens, UniProt Q05586+Q13224).
T2 construct: expressed in transfected cells; host or cells: mouse L(tk-) cells, dexamethasone-induced; gift from D. Steinhilber, University of Frankfurt
The experiment in a line: Filtration-based receptor binding assay with [3H]-Ifenprodil as radioligand. The conditions noted are these: 5 nM [3H]-Ifenprodil, membrane homogenates of mouse L(tk-) cells transfected with NR1-1a/NR2B, 180 min at 37 °C, read-out: affinity to the NR2B binding site of the NMDA receptor. Here is the method: Mouse L(tk-) cells stably transfected with the dexamethasone-inducible eukaryotic expression vectors pMSG NR1-1a, pMSG NR2B in a 1:5 ratio were a generous gift from D. Steinhilber (Department of Pharmacy, University of Frankfurt, Germany). The transformed L(tk-) cells were grown in Modified Earl's Medium (MEM) containing 10% of standardized FCS (Biochrom AG, Berlin, Germany). The expression of the NMDA receptor at the cell surface was induced after the cell density of the adherent growing cells had reached approximately 90% of confluency. For the induction, the original growth medium was replaced by growth medium containing 4 µM dexamethasone and 4 µM ketamine (final concentration). After 24 h the cells were harvested by trypsination and pelleted (10 min, 5,000 x g, Hettich Rotina 35R centrifuge, Tuttlingen, Germany).
For the binding assay, the cell pellet was resuspended in PBS buffer and the number of cells was determined using an improved Neubauer's counting chamber (VWR, Darmstadt, Germany). Subsequently, the cells were lysed by sonication (4 °C, 6 x 10 s cycles with breaks of 10 sec). The resulting cell fragments were centrifuged with a high performance cool centrifuge (20,000 x g, 4 °C, Sorvall RC-5 plus, Thermo Scientific). The supernatant was discarded and the pellet resuspended in a defined volume of phosphate buffer saline (PBS) yielding cell fragments of approximately 500,000 cells/mL. The suspension of membrane homogenates was sonicated again (4 °C, 2 x 10 s cycles with a break of 10 min) and stored at -80 °C.
The cell membrane suspension was added last. All experiments were carried out in triplicates. The incubation was terminated by rapid filtration through filtermats using a cell harvester (MicroBeta FilterMate-96 Harvester, Perkin Elmer). Prior to harvesting, the filtermats were presoaked in 0.5% aqueous polyethylenimine for 2 h at room temperature. After washing each well five times with 300 µL of water, the filtermats were dried at 95 °C. Subsequently, the solid scintillator was placed on the filtermat and melted at 95 °C. After 5 min, the solid scintillator was allowed to solidify at room temperature. The bound radioactivity trapped on the filters was counted in the scintillation analyzer (Microbeta Counter, Perkin Elmer). The overall counting efficiency was 20%.
The protein concentration was determined by the method of Bradford, modified by Stoscheck. The Bradford solution was prepared by dissolving 5 mg of Coomassie Brilliant Blue G 250 in 2.5 mL EtOH (95%, v/v). 10 mL deionized H2O and 5 mL phosphoric acid (85%, m/v) were added to this solution, the mixture was stirred and filled up to a total volume of 50.0 mL with deionized water. The calibration was carried out using bovine serum protein as a standard in concentrations between 0.1 and 10 mg /L. In a 96-well standard multiplate, 10 µL of the calibration solution or 10 µL of the membrane receptor preparation were mixed with 190 µL of the Bradford solution, respectively.
Kd and Bmax were calculated as described in the "Data analysis" section.
Data analysis was performed with Graph Pad Prism® Software, Version 3.0 (Graph Pad Software Inc., San Diego, CA, USA).
Saturation analyses were made by nonlinear regression using the "one-site-saturation" calculation method. The IC50 values of the test compounds used in the competitive binding experiments were determined by nonlinear regression using the "one-site-competition" calculation method. […] The Ki values are given as mean values from three independent experiments ± Standard Error of the Mean (S.E.M).

In a further experiment the target is T3, σ2 receptor (Rattus norvegicus, UniProt Q5U3Y7).
T3 construct: tissue Harlan Winkelmann; host or cells: rat liver membranes
T3 sequence (Q5U3Y7 1-176): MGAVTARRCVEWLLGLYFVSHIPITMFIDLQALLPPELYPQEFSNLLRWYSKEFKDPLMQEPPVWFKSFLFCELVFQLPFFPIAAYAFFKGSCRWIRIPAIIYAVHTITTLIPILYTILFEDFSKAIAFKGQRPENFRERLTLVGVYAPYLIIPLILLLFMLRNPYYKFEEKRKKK
The experiment is described as follows: Receptor binding assay with [3H]-ditolylguanidine on rat liver membranes. As to conditions: 3 nM [3H]-ditolylguanidine with 2 µM (+)-pentazocine, 180 min at room temperature, mean ± SEM, read-out: affinity to the σ2 receptor. How it is done:
as §1
Determination of affinity to the σ2 receptor
Two rat livers (Harlan Winkelmann, Borchen, Germany) were cut into smaller pieces and homogenized with the potter (500-800 rpm, 10 up-and-down strokes) in 6 volumes of cold 0.32 M sucrose. The suspension was centrifuged at 1200 x g for 10 min at 4 °C. The supernatant was separated and centrifuged at 31000 x g for 20 min at 4 °C. The pellet was resuspended in 5-6 volumes of buffer (50 mM TRIS, pH 8.0) and incubated at room temperature for 30 minutes. After the incubation, the suspension was centrifuged again at 31000 x g for 20 min at 4 °C. The final pellet was resuspended in 5 to 6 volumes of buffer, the protein concentration was determined according to the method of Bradford using bovine serum albumin as standard, and subsequently the preparation was frozen (-80 °C) in 1.5 mL portions containing about 2 mg protein/mL.
(50 Ci/mmol; ARC). […] The incubation was terminated by rapid filtration through the presoaked filtermats using a cell harvester. After washing each well five times with 300 µL of water, the filtermats were dried at 95 °C. Subsequently, the solid scintillator was placed on the filtermat and melted at 95 °C. The bound radioactivity trapped on the filters was counted in the scintillation analyzer as described in the "General procedures" section.

Experiment [2] concerns the target phencyclidine binding site of the NMDA receptor. As to conditions: radioligand constant; T. Utech, Dissertation, 2003, Universität Freiburg; cited from earlier work.
The mark [3] stands for this setting: Ki mean of three experiments ± S.E.M.

T2 sequence (Q13224 27-1484, other chains not shown): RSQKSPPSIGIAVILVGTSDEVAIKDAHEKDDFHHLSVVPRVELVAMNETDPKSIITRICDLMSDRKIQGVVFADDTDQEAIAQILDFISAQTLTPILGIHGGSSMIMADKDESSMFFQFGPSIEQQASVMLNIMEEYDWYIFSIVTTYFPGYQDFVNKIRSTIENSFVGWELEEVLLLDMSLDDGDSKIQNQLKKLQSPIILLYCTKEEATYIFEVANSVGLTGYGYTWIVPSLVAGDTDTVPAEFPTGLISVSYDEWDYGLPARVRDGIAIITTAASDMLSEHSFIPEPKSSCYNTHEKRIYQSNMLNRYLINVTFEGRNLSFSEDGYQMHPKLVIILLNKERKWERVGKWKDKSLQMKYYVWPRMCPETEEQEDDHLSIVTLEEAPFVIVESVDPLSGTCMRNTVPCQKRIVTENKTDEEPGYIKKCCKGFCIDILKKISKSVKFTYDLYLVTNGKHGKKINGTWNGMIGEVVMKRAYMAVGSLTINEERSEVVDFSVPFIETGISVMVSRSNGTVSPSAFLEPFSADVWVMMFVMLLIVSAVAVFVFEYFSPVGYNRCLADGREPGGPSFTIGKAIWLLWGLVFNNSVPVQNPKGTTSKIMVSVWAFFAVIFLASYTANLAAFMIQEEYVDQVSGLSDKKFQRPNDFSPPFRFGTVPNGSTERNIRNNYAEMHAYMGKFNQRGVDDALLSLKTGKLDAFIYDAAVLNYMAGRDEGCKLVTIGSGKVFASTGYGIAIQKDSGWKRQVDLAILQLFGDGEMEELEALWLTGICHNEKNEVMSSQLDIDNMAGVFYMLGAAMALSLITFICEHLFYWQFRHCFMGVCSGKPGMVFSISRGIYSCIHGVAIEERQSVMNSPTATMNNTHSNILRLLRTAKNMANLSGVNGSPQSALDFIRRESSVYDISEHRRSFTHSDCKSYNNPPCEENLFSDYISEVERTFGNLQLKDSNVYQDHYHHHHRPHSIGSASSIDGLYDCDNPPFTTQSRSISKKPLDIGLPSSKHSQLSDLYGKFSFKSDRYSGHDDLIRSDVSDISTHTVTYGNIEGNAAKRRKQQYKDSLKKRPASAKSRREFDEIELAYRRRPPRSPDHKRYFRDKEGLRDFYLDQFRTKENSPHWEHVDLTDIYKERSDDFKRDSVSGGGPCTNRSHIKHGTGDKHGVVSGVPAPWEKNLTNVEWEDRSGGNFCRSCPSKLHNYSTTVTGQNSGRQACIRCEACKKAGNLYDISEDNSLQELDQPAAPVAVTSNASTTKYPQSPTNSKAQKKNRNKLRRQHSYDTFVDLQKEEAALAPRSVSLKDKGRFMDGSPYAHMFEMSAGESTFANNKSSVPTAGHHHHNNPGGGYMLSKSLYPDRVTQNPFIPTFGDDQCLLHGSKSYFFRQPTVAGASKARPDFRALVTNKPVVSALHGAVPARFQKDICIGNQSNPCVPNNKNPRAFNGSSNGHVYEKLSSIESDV
T1 sequence (Q60492 whole entry): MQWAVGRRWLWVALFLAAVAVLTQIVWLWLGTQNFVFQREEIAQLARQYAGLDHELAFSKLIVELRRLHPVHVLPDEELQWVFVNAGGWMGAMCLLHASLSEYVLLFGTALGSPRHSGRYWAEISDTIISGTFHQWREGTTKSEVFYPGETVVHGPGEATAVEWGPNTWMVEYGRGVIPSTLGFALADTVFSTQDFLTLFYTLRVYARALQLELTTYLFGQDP

For `COc1ccc2c(c1)CCN(CCCCc1ccccc1)[C@@H](C)[C@H]2O` [formula (17)], the Ki was determined as 42.1 ± 9.9 nM on σ1 receptor, 0.209 µM in experiment [1] (setting [3]) and 6.08 ± 1.48 nM at σ2 receptor.

For the molecule `COc1ccc2c(c1)CCN(CCCCc1ccccc1)[C@H](C)[C@@H]2O` [formula (18)], the Ki on σ1 receptor was determined as 3.21 ± 1.42 nM; in experiment [1] (setting [3]), 0.586 µM; on σ2 receptor, 18.5 ± 4.2 nM.

With `OC1CN(C2CCC(c3ccccc3)CC2)CCc2cc(OCc3ccccc3)ccc21` (stereo not shown) [formula (20)], the results for the Ki (on σ1 receptor; in experiment [1] (values given in µM); on σ2 receptor) were 10.4 ± 1.4 nM, 2.51 µM and 311 nM, respectively.

In the case of `Oc1ccc2c(c1)CCN(CCCOc1ccccc1)CC2O` (stereo not shown) [formula (22)], the Ki on σ1 receptor was found to be 82.2 nM; in experiment [1] (setting [3]), 0.0234 µM; on σ2 receptor, 5.89 ± 2.86 nM.

Regarding `OC1CN(C2CCC3(CC2)OCCO3)CCc2cc(OCc3ccccc3)ccc21` (stereo not shown) [formula (25)], the Ki on σ1 receptor came out at 183 nM; in experiment [1] (setting [3]), 0.00112 µM; on σ2 receptor, 753 nM.

In the case of `O=C(c1ccccc1)N1CCC(N2CCc3cc(O)ccc3C(O)C2)CC1` (stereo not shown) [formula (26)], the “inhibition of the σ1 receptor only at concentrations above” value at σ1 receptor (given as above 1 µM or 10 µM) is “above 1 µM”. Also, the results for the Ki (in experiment [1] (setting [3]); on σ2 receptor) were 0.393 µM and 97.7 nM, respectively.

Consider `C[C@@H]1[C@H](O)c2ccc(O)cc2CCN1CCCCc1ccccc1` [formula (27)], for which the Ki on σ1 receptor is 85.5 nM; in experiment [1] (setting [3]), 0.0123 µM; at σ2 receptor, 142 nM.

Take `C[C@H]1[C@@H](O)c2ccc(O)cc2CCN1CCCCc1ccccc1` [formula (28)]: the values for the Ki (on σ1 receptor; in experiment [1] (setting [3]); on σ2 receptor) were 393 nM, 0.0221 µM and 103 nM, respectively.

In the case of (+)-MK-801, the equilibrium dissociation constant (Kd) in experiment [2] was 2.26 nM.
